How the values were obtained:
P. aeruginosa = experiment: Minimum inhibitory concentration by microdilution assay; type: cell-based, Pseudomonas aeruginosa; conditions: 37° C., 24 h
Description: (§1) Staphylococcus aureus (ATCC 6538, gram-positive), Escherichia coli (ATCC 25922, gram-negative), Pseudomonas aeruginosa (gram-negative), and Candida albicans (ATCC 10231, yeast) were used as representative microorganisms to challenge the antimicrobial functions of the imidazolium salts. All bacteria and yeast were stored frozen at −80° C., and were grown overnight at 37° C. in Tryptic Soy broth (TSB) prior to experiments. Yeast was grown overnight at 22° C. in Yeast Mold (YM) broth. Subsamples of these cultures were grown for 3 h further and diluted to give an optical density value of 0.07 at 600 nm, corresponding to 3×10^8 CFU mL^−1 (MacFarland's Standard).
(§2) The oligomer compounds were dissolved in PBS at a concentration of 1 mg mL^1 and the minimal inhibitory concentrations (MICs) were determined by microdilution assay. Typically, a 100 μL microbial solutions (containing 3×10^8 cells mL^−1) were added to 100 μL of PBS containing the test imidazolium salts (normally ranging from […] in serial two-fold dilutions) in each well of the 96-well microtiter plate. The plates were incubated at 37° C. for 24 h with shaking at 300 rpm, with monitoring at the 2, 4, 6, 8, and 24 h time points. […] Broth and PBS solution containing microbial cells alone were used as negative controls, and experiments were run in triplicates.

[1] = tested on: rat red blood cells (RBCs); experiment: Hemolysis; type: cell-based; conditions: lowest concentration that induces 10% or more hemolysis; rat RBCs, 1 h, 37° C.; maximum tested 100,000 ppm
Description: Before these materials can be used in systemic applications, selectivity of these materials for microbial cells over mammalian cells should also be considered. Such selectivity is often determined by observation of hemolysis. Hemolysis was performed in the following manner, fresh rat red blood cells (RBCs) were diluted with PBS buffer to give an RBC stock suspension (4 vol % blood cells). A 100 μL aliquot of RBC stock was added to a 96-well plate containing […] oligomer compound stock solutions of various concentrations (serial 2-fold dilution in PBS). After 1 h incubation at 37° C., The contents of each well was pipetted into a microcentrifuge tube and then centrifuged at 4000 rpm for 5 min. Hemolytic activity was determined as a function of hemoglobin release by measuring OD576 of […] of the supernatant. A control solution that contained only PBS was used as a reference for 0% hemolysis. 100% hemolysis was measured by adding 0.5% Triton-X to the RBCs. [formula] The selectivity of the materials was also further assessed, by calculating the selectivity indices (SI), a measure and a comparison of safety and efficacies of each oligomer compound. […] Herein, the more stringent control of HC10 value was chosen over the HC50 value often reported in literature.

E. coli [2] = experiment: Time kill kinetics; type: cell-based, Escherichia coli; conditions: two minutes; for % kill / Log reduction: E. coli, 4MIC
Description: Time kill studies of the soligome compounds against E. coli were also studied. The experimental setup for time kill kinetics was similar to the set up for MBC determination. The microbes were treated with oligomer compounds at 4MIC concentration, and samples were taken out of each well at 2 minutes. 500 μl of cell suspension was removed, rescued by a series of 10-fold dilutions with growth medium, and kept on ice until plating. For plating, 50 μl to 200 μl of the diluted samples was spread on growth medium agar plates and colonies were counted after overnight incubation at 37° C.

E. coli [3] = experiment: Minimum biocidal concentration / killing efficiency (24 h); type: cell-based, Escherichia coli
Description: (§3) To determine the minimum bacteriocidal concentration, the microbes were inoculated and prepared according to the procedure for MIC determination. […] The bacterial samples were taken out of each well after the aforementioned period, and subjected to a series of 10-fold dilutions. 20 uL of the diluted sample was then streaked across an agar plate, before incubation of the plate at 37° C. for 24 h. Colony forming units (CFU) were counted after overnight incubation, and the results were calculated according to the formula: [formula]

S. aureus [4] = experiment: Minimum inhibitory concentration by microdilution assay; type: cell-based, Staphylococcus aureus (ATCC 6538); conditions: 37° C., 24 h
Description: as §1, §2

[5] = Critical micellar concentration (pyrene fluorescent probe); type: physicochemical; conditions: FIG. 4, deionized water
Description: The CMC values of the oligomer compounds were determined in both deionised (DI) water and PBS, using a LS50B luminescence spectrometer (Perkin Elmer, United States) and employing pyrene as a fluorescent probe. A known weight of the oligomer compound was dissolved in either 2 mL of DI water or PBS in a 4 mL glass vial and serial dilutions were effected. 10 μL of pyrene stock solution in acetone (6.16×10^-5 M) was added to each vial containing 1 mL of a known concentration of the oligomer compound, and the acetone was then evaporated at room temperature. The solution was allowed to equilibrate overnight and the final concentration of pyrene in each vial was 6.16×10^-7 M. The excitation spectra of the solutions were scanned from 300 to 360 nm with an emission wavelength of 395 nm, and both the excitation and emission bandwidths were set at 2.5 nm. The intensity ratios ([…]/[…]) were plotted against polymer concentration. The CMC value was given by the intersection of the tangent to the curve at the inflection and the tangent of the points at low polymer concentrations.

C. Albicans = experiment: Minimum inhibitory concentration by microdilution assay; type: cell-based, Candida albicans (ATCC 10231); conditions: 24 h
Description: as §1, §2

S. aureus [6] = experiment: Minimum biocidal concentration / killing efficiency (24 h); type: cell-based, Staphylococcus aureus
Description: as §3

[7] = Gelling properties in solvents (tube inversion test); type: physicochemical
Description: Gels were prepared by weighing the imidazolium oligomer compounds directly into 4 mL glass vials and subsequently adding a known weight or volume of the solvent. The vials containing both the imidazolium and the solvent were either vortexed or sonicated to ensure that the imidazolium was dissolved and dispersed thoroughly before being placed in a 4° C. fridge overnight. The tube inversion test method was used to examine gel formation in different solvents.

[8] = tested on: 4 microbes (S. aureus, E. coli, P. aeruginosa, C. Albicans); experiment: MIC over the 4 microbes tested (geometric mean); type: cell-based; conditions: geometric mean of the MICs of the 4 microbes
Description: Staphylococcus aureus (ATCC 6538, gram-positive), Escherichia coli (ATCC 25922, gram-negative), Pseudomonas aeruginosa (gram-negative), and Candida albicans (ATCC 10231, yeast) were used as representative microorganisms to challenge the antimicrobial functions of the imidazolium salts. All bacteria and yeast were stored frozen at −80° C., and were grown overnight at 37° C. in Tryptic Soy broth (TSB) prior to experiments. Yeast was grown overnight at 22° C. in Yeast Mold (YM) broth. […] Typically, a 100 μL microbial solutions (containing 3×10^8 cells mL^−1) were added to 100 μL of PBS containing the test imidazolium salts (normally ranging from […] in serial two-fold dilutions) in each well of the 96-well microtiter plate. The plates were incubated at 37° C. for 24 h with shaking at 300 rpm, with monitoring at the 2, 4, 6, 8, and 24 h time points. […] Broth and PBS solution containing microbial cells alone were used as negative controls, and experiments were run in triplicates. The selectivity of the materials was also further assessed, by calculating the selectivity indices (SI), a measure and a comparison of safety and efficacies of each oligomer compound. […] Herein, the more stringent control of HC10 value was chosen over the HC50 value often reported in literature.

E. coli [9] = experiment: Minimum inhibitory concentration by microdilution assay; type: cell-based, Escherichia coli (ATCC 25922); conditions: E. coli, 37° C., 24 h
Description: as §1, §2

Row | SMILES | MIC P.A. (P. aeruginosa) | HC10 [1] | % kill (E. coli [2]) | Log reduction (E. coli [2]) | % killing (E. coli [3]; 0.5 MIC) | Log reduction (E. coli [3]; 0.5 MIC) | % killing (E. coli [3]; 2 MIC) | Log reduction (E. coli [3]; 2 MIC) | % killing (E. coli [3]; MIC) | Log reduction (E. coli [3]; MIC) | MIC S.A. (S. aureus [4]) | sharp point of inflection indicating the critical micellar concentrations [5] | MIC C.A. (C. Albicans) | % killing (S. aureus [6]; 0.5 MIC) | Log reduction (S. aureus [6]; 0.5 MIC) | % killing (S. aureus [6]; 2 MIC) | Log reduction (S. aureus [6]; 2 MIC) | % killing (S. aureus [6]; MIC) | MIC GM [8] | MIC E. coli (E. coli [9]) | also measured
1 | CCCCCC[n+]1ccn(Cc2ccc(C[n+]3ccn(Cc4ccc(C[n+]5ccn(Cc6ccccc6Cn6cc[n+](Cc7ccc(Cn8cc[n+](Cc9ccc(Cn%10cc[n+](CCCCCC)c%10)cc9)c8)cc7)c6)c5)cc4)c3)cc2)c1.[Br-].[Br-].[Cl-].[Cl-].[Cl-].[Cl-] [Compound 1] | 8 µg/mL | >100000 ppm | 99.8% | 2.85 | 97.692% | 1.48 ± 0.212 | >99.999% | 8.40 ± 0.403 | >99.999% | 7.53 ± 0.173 | 4 µg/mL | not observed | 16 µg/mL | 99.975% | 3.69 ± 0.335 | >99.999% | 7.28 ± 0.036 | 99.999% | 8 µg/mL | 8 µg/mL | Log reduction (S. aureus [6]; MIC): 5.35 ± 0.094; State in solvent ([7]; Acetone): Insoluble; State in solvent ([7]; Acetonitrile): Insoluble; Concentration to form gel ([7]; EtOH): (11 wt %); State in solvent ([7]; EtOH): Gel; State in solvent ([7]; Ethylene glycol): Solution; State in solvent ([7]; Glycerol): Solution; Concentration to form gel ([7]; nBuOH): (9.2 wt %); State in solvent ([7]; nBuOH): Gel; Concentration to form gel ([7]; nPrOH): (7.8 wt %); State in solvent ([7]; nPrOH): Gel
2 | CCCCCCCC[n+]1ccn(Cc2ccc(C[n+]3ccn(Cc4ccc(C[n+]5ccn(Cc6ccccc6Cn6cc[n+](Cc7ccc(Cn8cc[n+](Cc9ccc(Cn%10cc[n+](CCCCCCCC)c%10)cc9)c8)cc7)c6)c5)cc4)c3)cc2)c1.[Br-].[Br-].[Cl-].[Cl-].[Cl-].[Cl-] [Compound 2] | 16 µg/mL | 12500 ppm | >99.9% | 3.11 | 99.779% | 2.67 ± 0.128 | >99.999% | 7.19 ± 0.149 | >99.999% | 7.11 ± 0.123 | 4 µg/mL | not observed | 16 µg/mL | 98.03% | 1.71 ± 0.032 | >99.999% | 13.38 ± 0.337 | >99.999% | 9.51 µg/mL | 8 µg/mL | Log reduction (S. aureus [6]; MIC): 11.82 ± 0.067; State in solvent ([7]; Acetone): Insoluble; State in solvent ([7]; Acetonitrile): Insoluble; Concentration to form gel ([7]; EtOH): (11 wt %); State in solvent ([7]; EtOH): Gel; State in solvent ([7]; Ethylene glycol): Solution; State in solvent ([7]; Glycerol): Solution; Concentration to form gel ([7]; nBuOH): (11.3 wt %); State in solvent ([7]; nBuOH): Gel; Concentration to form gel ([7]; nPrOH): (9.8 wt %); State in solvent ([7]; nPrOH): Gel
3 | c1ccc(C[n+]2ccn(Cc3ccc(C[n+]4ccn(Cc5ccc(C[n+]6ccn(Cc7ccccc7Cn7cc[n+](Cc8ccc(Cn9cc[n+](Cc%10ccc(Cn%11cc[n+](Cc%12ccccc%12)c%11)cc%10)c9)cc8)c7)c6)cc5)c4)cc3)c2)cc1 [IBN-1, reference compound] | 31 µg/mL | >100000 ppm | 83.33% | 0.79 |  |  |  |  |  |  | 3 µg/mL | not observed | 31 µg/mL |  |  |  |  |  | 10.36 µg/mL | 4 µg/mL | killing within two minutes (E. coli [2]; E. coli (3×10^8 cells mL^−1), 32 ppm concentration of oligomer compounds): 83%; Gel formation ([7]; any of the solvents): not able to form gels
